Experimental data: article PMC12806164, “Epithelial Heparan Sulfate Promotes Staphylococcus aureus Corneal Infection by Inhibiting Cathelicidins” (Proteoglycan research, 2025)
No end group written: not given here.

Assays:
[1] = test system: CRAMP; experiment: Alexa 647-CRAMP binding to Affi-Gel HP beads, competition by HP compounds (flow cytometry); parameters: species or system mouse; conditions: 20 μg/mL competitor, 0.5 μM Alexa 647-conjugated CRAMP, 1 h at room temperature, n = 4
Method: (§1) FIGURE 4 | 2-O-sulfated heparan compounds directly bind to CRAMP with high affinity. Alexa 647-conjugated CRAMP (0.5 μM) was incubated with Affi-Gel HP beads without or with 20 μg/mL of HP, NDS-HP, 2ODS-HP, or 6ODS-HP for 1 h at room temperature. CRAMP fluorescence associated with Affi-Gel HP beads was analyzed by flow cytometry. Results are shown as (A) % CRAMP binding and (B) mean fluorescence intensity (MFI) of CRAMP binding (n = 4, ***p < 0.001, ****p < 0.0001). ITC analyses for CRAMP binding to HP were performed at 25°C using a MicroCal iTC 200 titration calorimetry. The fitted heat curves of titrating CRAMP binding to (C) HP and (D) 2ODS-HP are shown.
(§2) Affi-Gel HP beads were washed and resuspended in PBS. Affi-Gel HP beads (20 μL) were incubated with 0.5 μM Alexa 647-labeled CRAMP without or with 20 μg/mL HP, chemically desulfated HP, or chemoenzymatically sulfated H for 1 h at room temperature. Affi-Gel HP beads were washed with PBS, and the Alexa 647-labeled CRAMP bound to them was assessed by flow cytometry.

[2] = test system: CAP-18; experiment: Inhibition by glycosaminoglycans of S. aureus killing by CAP-18; format: cell-based, rabbit; conditions: 5 μg/mL glycosaminoglycan, 0.5 μM CAP-18, ~500 cfu USA300, phosphate buffer pH 7.4, 2 h at 37°C, n = 6
Method: (§3) Samples were plated onto TSA plates, and viable bacteria (cfu) were counted the following day. Data are shown as % bacterial killing, where killing activity in the presence of cathelicidin only represents 100% (n = 6, *p < 0.05, ****p < 0.0001, one-way ANOVA, multiple comparisons).
(§4) (A) Schematics of HS/HP structure. […] (F) BaclightGreen-labeled S. aureus (~400 cfu) was incubated with 0.5 μM CRAMP without or with 5 μg/mL HP, NDS-HP, 2ODS-HP, 6ODS-HP, H, NS-H, or NS2OS-H for 30 min at room temperature. Bacteria were washed, incubated with 10 μg/mL propidium iodide for 15 min at 4°C, and live (green) and dead (red) bacteria were visualized by fluorescence microscopy.
(§5) Late log phase S. aureus USA300 was washed with phosphate buffer (8.2 mM Na2HPO4, 1.8 mM KH2PO4, pH 7.4) and approximately 500 cfu were incubated with cathelicidins with or without excess GAGs for 2 h at 37°C as indicated. Viable bacteria were enumerated by plating onto TSA plates and counting colonies the following day. Results are shown as % bacterial killing, where 100% killing represents data derived from the group of bacteria incubated with cathelicidins only.

[3] = test system: SMAP-29; experiment: Inhibition by glycosaminoglycans of S. aureus killing by SMAP-29; format: cell-based, sheep; conditions: 5 μg/mL glycosaminoglycan, 0.5 μM SMAP-29, ~500 cfu USA300, phosphate buffer pH 7.4, 2 h at 37°C, n = 6
Method: as §3, §4, §5

[4] = test system: CRAMP; experiment: Inhibition by glycosaminoglycans of S. aureus killing by CRAMP; format: cell-based, mouse; conditions: 5 μg/mL glycosaminoglycan, 0.5 μM CRAMP, ~500 cfu USA300, phosphate buffer pH 7.4, 2 h at 37°C, n = 6
Method: as §3, §4, §5
(§6) Figure S1. A) CRAMP expression was measured in uninfected Wt corneas or Wt corneas isolated at 4 h post-S. aureus USA300 infection. Briefly, eyes were enucleated, corneas were dissected, and isolated corneas were incubated with 10 mg/ml dispase II overnight at 4°C to peel off the corneal epithelium. Total RNA was purified from the corneal epithelium, and 1 ng of total RNA was analyzed by qRT-PCR for CRAMP or β-actin expression (n = 3, **p < 0.01). […] Bacterial killing was measured by plating serial dilutions onto TSA plates and counting colonies the following day. Results are shown as % bacterial survival (n = 4). Figure S2. […] Bacterial killing (%) was enumerated by plating serial dilutions onto TSA plates and counting colonies the following day (n = 5). B) Effects of pre-incubating S. aureus with glycosaminoglycans on bacterial killing by cathelicidins were examined by incubating 500 cfu of USA300 without or with 5 μg/ml HS, HP, DS, or CS for 30 min at 37°C. Bacteria were washed three times with buffer, incubated with 0.5 μM CRAMP for 2 h at 37°C, and % bacterial killing was determined by plating serial dilutions of samples (n = 4). Figure S3. S. aureus USA300 stained with BaclightGreen was incubated with 0.5 μM CRAMP in the absence or presence of 5 μg/ml HP, NDS-HP, 2ODS-HP, 6ODS-HP, H, NS-H, or NS2OS-H for 30 min at room temperature. Bacteria were washed and incubated with 10 μg/ml propidium iodide for 15 min on ice. Images were captured with a fluorescence microscope (Zeiss Axiovert 40 CFL). Quantification of % dead bacteria (out of total bacteria in field) is shown at the bottom. Figure S4. Alexa 647-conjugated CRAMP (0.5 μM) was incubated with fixed S. aureus USA300 without or with 5 μg/ml of the indicated glycosaminoglycans and chemically-desulfated HP compounds for 1 h at room temperature. S. aureus-associated CRAMP fluorescence was analyzed by flow cytometry. Representative FACS density plots are shown where heparan compounds containing 2-O-sulfated motifs decreased Alexa CRAMP binding by over 79% compared to the control (No GAG), except for NDS-HP where the reduction was approximately 65%. Fig. S5. Relative mRNA levels of A) Ndst1 and B) Sdc1 in the corneal epithelium of Hs2st^fl/fl, Krt12Cre, and Hs2st^fl/fl/Krt12Cre mice (n = 3).

[5] = test system: CRAMP; experiment: Alexa 647-CRAMP binding to fixed S. aureus, inhibition by glycosaminoglycans (flow cytometry); parameters: species or system mouse; conditions: 0.5 μM Alexa 647-conjugated CRAMP
Method: Alexa 647-conjugated CRAMP (0.5 μM) was incubated with 2% paraformaldehyde-fixed Staphylococcus aureus USA300 without or with 5 μg/mL HP, HS, CS, DS, NDS-HP, 6ODS-HP, or 2ODS-HP for 1 h at room temperature. S. aureus-associated CRAMP fluorescence was analyzed by flow cytometry. Results are shown as % Alexa CRAMP binding (n = 3, ****p < 0.0001).
Alexa 647 fluorophore was conjugated to CRAMP using the Lightning-Link Rapid FluoProbes647H labeling kit following the manufacturer’s instructions. S. aureus USA300 fixed in 2% paraformaldehyde for 20 min was resuspended in 20 μL of phosphate buffer and incubated with 0.5 μM of Alexa 647-labeled CRAMP for 30 min at room temperature without or with glycosaminoglycans. Unbound Alexa 647-labeled CRAMP was removed by washing with phosphate buffer, and Alexa 647-labeled CRAMP bound to bacteria was assessed by flow cytometry.
as §6

[6] = test system: LL-37; experiment: Inhibition by glycosaminoglycans of S. aureus killing by LL-37; format: cell-based, human; conditions: 5 μg/mL glycosaminoglycan, 1 μM LL-37, ~500 cfu USA300, phosphate buffer pH 7.4, 2 h at 37°C, n = 6
Method: as §3, §4, §5

[7] = test system: CRAMP; experiment: ITC of HP and 2ODS-HP binding to CRAMP; parameters: species or system mouse; conditions: 25.0°C, 50 mM HEPS pH 7.4, 150 mM NaCl
Method: as §1
ITC of CRAMP binding to HP and modified HP was carried out at 25.0°C using a MicroCal iTC 200 titration calorimetry system (Malvern, UK). A stock solution of CRAMP was diluted to 12.5 μM in 50 mM HEPS, pH 7.4, 150 mM NaCl, and approximately 300 μL of this solution was loaded into the ITC cell and titrated with 25 μM of HP or 2ODS-HP in the same buffer. Briefly, titration injection of HP or 2ODS-HP consisted of a first injection of 0.4 μL followed by 18 consecutive injections of 2 μL of 0.8 s duration and with a 2.5 min interval between injections. […] The enthalpy change of binding (ΔH), the binding affinity, and the binding stoichiometry were determined.

[8] = Alexa 647-CRAMP binding to Affi-Gel HP beads, direct and with unlabeled peptides (flow cytometry); conditions: 20-fold excess (5 μM) unlabeled peptide, 250 nM Alexa 647-labeled CRAMP, 1 h at room temperature, n = 3–4
Method: FIGURE 5 | Secondary structure of mature CRAMP is required for binding to heparan compounds. (A) Sequence and pI (in parentheses) of the 34 amino acid long mature CRAMP and four 10- or 20-mer peptides that span amino acids 4–13 (CR-1), 13–22 (CR-2), 24–33 (CR-3), or 4–23 (CR-4) of mature CRAMP. (B) Affi-Gel HP beads were incubated with 250 nM of Alexa 647-labeled CRAMP without or with 5 μM of unlabeled CRAMP, heat-treated CRAMP, CR-1, CR-2, CR-3, or CR-4 peptides for 1 h at room temperature. […] (C) ITC analyses of heat-treated CRAMP binding to HP. The fitted heat curve of titrating CRAMP binding to HP is shown. TEXT PRINTED IN THE PICTURE: (A) CRAMP: (10.0) | (A) CR-1: (9.6) | (A) CR-2: (10.6) | (A) CR-3: (5.9) | (A) CR-4: (10.4) DOUBTS OF THE COPYIST ABOUT THIS PICTURE: Panel A: the numbers in brackets after the peptide names are printed without any measure or unit in the picture, so they are given as printed, without a measure.
as §2

[9] = test system: S. aureus USA300; experiment: Bacteria live/dead staining (BaclightGreen / propidium iodide); format: cell-based, Staphylococcus aureus; conditions: 0.5 μM CRAMP without or with 5 μg/mL compound, 30 min at room temperature, propidium iodide 10 μg/mL
Method: as §4
S. aureus USA300 was stained by BaclightGreen (Thermo Fisher) following the manufacturer’s instructions. Briefly, an overnight culture of S. aureus was resuspended in PBS and incubated with 100 μM BaclightGreen for 15 min at room temperature. […] Bacteria were mounted on glass slides and images were captured with a fluorescence microscope (Zeiss Axiovert 40 CFL). […]
Figure S1. A) CRAMP expression was measured in uninfected Wt corneas or Wt corneas isolated at 4 h post-S. aureus USA300 infection. […] Total RNA was purified from the corneal epithelium, and 1 ng of total RNA was analyzed by qRT-PCR for CRAMP or β-actin expression (n = 3, **p < 0.01). […] Bacterial killing was measured by plating serial dilutions onto TSA plates and counting colonies the following day. […] Bacteria were washed three times with buffer, incubated with 0.5 μM CRAMP for 2 h at 37°C, and % bacterial killing was determined by plating serial dilutions of samples (n = 4). […] Images were captured with a fluorescence microscope (Zeiss Axiovert 40 CFL). […]

[10] = test system: S. aureus USA300; experiment: Pre-incubation of S. aureus with glycosaminoglycans, washing, then killing by cathelicidin; format: cell-based, Staphylococcus aureus; conditions: 5 μg/ml glycosaminoglycan pre-incubated with 500 cfu USA300 30 min at 37°C, washed three times, then 0.5 μM CRAMP 2 h at 37°C, n = 4
Method: Figure S1. A) CRAMP expression was measured in uninfected Wt corneas or Wt corneas isolated at 4 h post-S. aureus USA300 infection. Briefly, eyes were enucleated, corneas were dissected, and isolated corneas were incubated with 10 mg/ml dispase II overnight at 4°C to peel off the corneal epithelium. Total RNA was purified from the corneal epithelium, and 1 ng of total RNA was analyzed by qRT-PCR for CRAMP or β-actin expression (n = 3, **p < 0.01). […] Bacterial killing was measured by plating serial dilutions onto TSA plates and counting colonies the following day. Results are shown as % bacterial survival (n = 4). Figure S2. […] Bacterial killing (%) was enumerated by plating serial dilutions onto TSA plates and counting colonies the following day (n = 5). B) Effects of pre-incubating S. aureus with glycosaminoglycans on bacterial killing by cathelicidins were examined by incubating 500 cfu of USA300 without or with 5 μg/ml HS, HP, DS, or CS for 30 min at 37°C. Bacteria were washed three times with buffer, incubated with 0.5 μM CRAMP for 2 h at 37°C, and % bacterial killing was determined by plating serial dilutions of samples (n = 4). Figure S3. […] Images were captured with a fluorescence microscope (Zeiss Axiovert 40 CFL). Quantification of % dead bacteria (out of total bacteria in field) is shown at the bottom. […] S. aureus-associated CRAMP fluorescence was analyzed by flow cytometry. […]

Row | Substance | Inhibition of CRAMP binding to HP beads [1] | Reduction of mean fluorescence intensity (MFI) of CRAMP binding to HP beads compared to control [1] | Inhibition of S. aureus killing by CAP-18 [2] | Inhibition of S. aureus killing by SMAP-29 [3] | Inhibition of S. aureus killing by CRAMP [4] | Decrease of MFI of Alexa-labeled CRAMP binding to S. aureus compared to control ([5]; 5 μg/mL glycosaminoglycan, 2% paraformaldehyde-fixed S. aureus USA300, 1 h at room temperature, n = 3) | Reduction of proportion of CRAMP-bound bacteria (Alexa CRAMP binding, FACS density plots) compared to No GAG ([5]; 5 μg/ml glycosaminoglycan, fixed S. aureus USA300, 1 h at room temperature, representative plots) | Inhibition of S. aureus killing by LL-37 [6] | Heat changes on incubation with CRAMP (ITC) ([7]; 12.5 μM CRAMP titrated with 25 μM 2ODS-HP) | Inhibition of Alexa CRAMP binding to HP beads by unlabeled peptide [8] [%] | Live (green) / dead (red) state of most bacteria [9] | Inhibition of bacterial killing by cathelicidins after pre-incubation with bacteria and washing away [10] | Kd ([7]; 12.5 μM CRAMP in cell, titrated with 25 μM HP, read-out: Binding affinity for CRAMP binding to HP (ITC)) [nM]
1 | 2-O-desulfated HP [2ODS-HP] | 25% | not | significantly inhibited the ability of HP to inhibit | significantly inhibited the ability of HP to inhibit | significantly inhibited the ability of HP to inhibit | no effect | not | significantly inhibited the ability of HP to inhibit | did not produce significant heat changes | – | – | – | –
2 | CR-4: 20-mer peptide, amino acids 4–23 of mature CRAMP (LAGLLRKGGEKIGEKLKKIG; Cathelicidin antimicrobial peptide; UniProt P51437 138-157, looked up, fragment) | – | – | – | – | – | – | – | – | – | 34.7 | – | – | –
3 | GLLRKGGEKIGEKLKKIGQKIKNFFQKLVPQPEQ [CRAMP] | – | – | – | – | – | – | – | – | – | 92.7 | dead | – | –
4 | heparin [HP] | over 75% | – | over 70% | over 70% | over 70% | – | – | over 70% | – | – | – | did not inhibit | 45.2
